Patent US12485123B2, “1H-pyrazolo[4,3-d]pyrimidine compounds as toll-like receptor 7 (TLR7) agonists” (BRISTOL-MYERS SQUIBB COMPANY, priority 2020, dated 2025)

Assays:
CD69 = test: Induction of CD69 in human whole blood; type: cell-based; conditions: 17 hrs incubation, CD69 surface staining, 100% set to 1 uM of resiquimod, average where assay repeated, read-out: hWB CD69 EC50
Procedure: Induction of Type I Interferon Genes (MX-1) and CD69 in Human Blood
The induction of Type I interferon (IFN) MX-1 genes and the B-cell activation marker CD69 are downstream events that occur upon activation of the TLR7 pathway. The following is a human whole blood assay that measures their induction in response to a TLR7 agonist.
Heparinized human whole blood was harvested from human subjects and treated with test TLR7 agonist compounds at 1 mM. The blood was diluted with RPMI 1640 media and Echo was used to predot 10 nL per well giving a final concentration of 1 uM (10 nL in 10 uL of blood). After mixing on a shaker for 30 sec, the plates were covered and placed in a 37° C. chamber for o/n=17 hrs. Fixing/lysis buffer was prepared (5×→1× in H2O, warm at 37° C.; Cat #BD 558049) and kept the perm buffer (on ice) for later use.
For surface markers staining (CD69): prepared surface Abs: 0.045 ul hCD14-FITC (ThermoFisher Cat #MHCD1401)+0.6 ul hCD19-ef450 (ThermoFisher Cat #48-0198-42)+1.5 ul hCD69-PE (cat #BD555531)+0.855 ul FACS buffer. Added 3 ul/well, spin 1000 rpm for 1 min and mixed on shaker for 30 sec, put on ice for 30 min. Stop stimulation after 30 minutes with 70 uL of prewarmed 1× fix/lysis buffer and use Feliex mate to resuspend (15 times, change tips for each plate) and incubate at 37 C for 10 minutes.
Centrifuge at 2000 rpm for 5 minutes aspirate with HCS plate washer, mix on shaker for 30 sec and then wash with 70 uL in dPBS and pelleted 2×s (2000 rpm for 5 min) and 50 ul wash in FACS buffer pelleted 1×s (2000 rpm for 5 min). Mix on shaker for 30 sec. For Intracellular markers staining (MX-1): Add 50 ul of BD Perm buffer III and mix on shaker for 30 sec. Incubate on ice for 30 minutes (in the dark). Wash with 50 uL of FACS buffer 2× (spin @2300 rpm×5 min after perm) followed by mixing on shaker for 30 sec. Resuspended in 20 ul of FACS buffer containing MX1 antibody ( )(4812)-Alexa 647: Novus Biologicals #NBP2-43704AF647) 20 ul FACS bf+0.8 ul hIgG+0.04 ul MX-1. Spin 1000 rpm for 1 min, mix on shaker for 30 se and the samples were incubated at RT in the dark for 45 minutes followed by washing 2×FACS buffer (spin @2300 rpm×5 min after perm). Resuspend 20 ul (35 uL total per well) of FACS buffer and cover with foil and place in 4° C. to read the following day. Plates were read on iQuePlus. The results were loaded into toolset and […] curves are generated in curve master. The y-axis 100% is set to 1 uM of resiquimod.

human TLR7 = molecular target: T1, human TLR7 (Homo sapiens, UniProt Q9NYK1); test: Human TLR7 agonist activity reporter assay (HEK-Blue TLR7 cells, SEAP reporter); type: cell-based; conditions: human TLR7 (hTLR7) reporter assay, SEAP readout after 18 h, average where assay repeated, read-out: TLR7 Agonism EC50
T1 construct: host or cells: HEK-Blue TLR7 cells (engineered human embryonic kidney cells)
T1 sequence (Q9NYK1 27-1049): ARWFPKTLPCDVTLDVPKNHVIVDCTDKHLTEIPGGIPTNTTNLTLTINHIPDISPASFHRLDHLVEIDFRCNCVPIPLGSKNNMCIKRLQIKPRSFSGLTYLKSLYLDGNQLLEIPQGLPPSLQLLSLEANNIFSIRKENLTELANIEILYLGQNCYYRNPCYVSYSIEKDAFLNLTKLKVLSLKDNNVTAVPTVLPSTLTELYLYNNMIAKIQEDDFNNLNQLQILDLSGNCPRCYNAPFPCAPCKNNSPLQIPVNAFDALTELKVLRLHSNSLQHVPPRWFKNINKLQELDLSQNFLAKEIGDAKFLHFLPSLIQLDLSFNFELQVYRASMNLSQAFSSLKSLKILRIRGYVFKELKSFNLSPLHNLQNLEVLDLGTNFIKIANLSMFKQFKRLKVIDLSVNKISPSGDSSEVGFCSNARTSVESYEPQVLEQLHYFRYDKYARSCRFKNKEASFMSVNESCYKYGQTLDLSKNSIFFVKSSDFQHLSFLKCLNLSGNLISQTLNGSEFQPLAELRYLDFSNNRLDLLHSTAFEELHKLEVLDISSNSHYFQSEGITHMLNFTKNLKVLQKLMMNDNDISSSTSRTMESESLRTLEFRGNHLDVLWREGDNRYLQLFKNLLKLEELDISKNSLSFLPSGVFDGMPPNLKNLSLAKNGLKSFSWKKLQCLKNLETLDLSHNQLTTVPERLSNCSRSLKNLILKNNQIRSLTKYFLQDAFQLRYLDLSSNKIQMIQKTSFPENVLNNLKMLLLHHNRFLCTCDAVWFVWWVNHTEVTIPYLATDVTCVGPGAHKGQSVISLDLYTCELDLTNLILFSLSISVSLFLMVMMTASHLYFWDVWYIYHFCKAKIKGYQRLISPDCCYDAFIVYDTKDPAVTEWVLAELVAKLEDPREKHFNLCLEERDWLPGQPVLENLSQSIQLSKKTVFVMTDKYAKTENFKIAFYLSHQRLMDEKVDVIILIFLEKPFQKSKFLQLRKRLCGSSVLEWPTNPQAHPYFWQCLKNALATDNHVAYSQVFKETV
Procedure: Human TLR7 Agonist Activity Assay
This procedure describes a method for assaying human TLR7 (hTLR7) agonist activity of the compounds disclosed in this specification.
HEK-Blue™ TLR7 cells were added to each well of a 384-well tissue-culture plate (15,000 cells per well) and incubated 16-18 h at 37° C., 5% CO2. Compounds (100 nl) were dispensed into wells containing the HEK-Blue™ TLR cells and the treated cells were incubated at 37° C., 5% CO2. After 18 h treatment ten microliters of freshly-prepared Quanti-Blue™ reagent (Invivogen) was added to each well, incubated for 30 min (37° C., 5% CO2) and SEAP levels measured using an Envision plate reader (OD=620 nm).

Structure (SMILES): CCCCNc1nc(N)nc2cnn(Cc3ccc(CN4CCOCC4)c4cccnc34)c12 [Compound 107, N7-butyl-1-({5-[(morpholin-4-yl)methyl]quinolin-8-yl}methyl)-1H-pyrazolo[4,3-d]pyrimidine-5,7-diamine]
- EC50 (CD69): 321 nM
- EC50 (human TLR7): 156 nM

Structure (SMILES): CCC[C@@H](CCO)Nc1nc(N)nc2cnn(Cc3ccc(CN4C[C@H]5CN(C)C[C@H]5C4)c4cccnc34)c12 [Compound 140, (3S)-3-({1-[(5-{[(3aR,6aS)-5-methyl-octahydropyrrolo[3,4-c]pyrrol-2-yl]methyl}quinolin-8-yl)methyl]-5-amino-1H-pyrazolo[4,3-d]pyrimidin-7-yl}amino)hexan-1-ol]
- EC50 (CD69): 21.1 nM
- EC50 (human TLR7): 8.3 nM

Structure (SMILES): CCC[C@@H](CCO)Nc1nc(N)nc2cnn(Cc3ccc(C(=O)N4CCC(CCO)CC4)c4cccnc34)c12 [Compound 134, (3S)-3-{[5-amino-1-({5-[4-(2-hydroxyethyl)piperidine-1-carbonyl]quinolin-8-yl}methyl)-1H-pyrazolo[4,3-d]pyrimidin-7-yl]amino}hexan-1-ol]
- EC50 (CD69): 194 nM
- EC50 (human TLR7): 35.4 nM

Structure (SMILES): CCC[C@@H](CCO)Nc1nc(N)nc2c(C)nn(Cc3ccc(C(=O)NC4CCN(C)CC4)c4cccnc34)c12 [Compound 123, 8-[(5-amino-7-{[(3S)-1-hydroxyhexan-3-yl]amino}-3-methyl-1H-pyrazolo[4,3-d]pyrimidin-1-yl)methyl]-N-(1-methylpiperidin-4-yl)quinoline-5-carboxamide]
- EC50 (CD69): 661 nM
- EC50 (human TLR7): 732 nM

Structure (SMILES): CCC[C@@H](CCO)Nc1nc(N)nc2cnn(Cc3ccc(C(=O)N4CC(OC)C4)c4cccnc34)c12 [Compound 108, (3S)-3-[(5-amino-1-{[5-(3-methoxyazetidine-1-carbonyl)quinolin-8-yl]methyl}-1H-pyrazolo[4,3-d]pyrimidin-7-yl)amino]hexan-1-ol]
- EC50 (CD69): 110 nM
- EC50 (human TLR7): 67.6 nM

Structure (SMILES): CCC[C@@H](CCO)Nc1nc(N)nc2cnn(Cc3ccc(C(=O)N4C[C@H]5C[C@@H]4CN5C)c4cccnc34)c12 [Compound 126, (3S)-3-{[5-amino-1-({5-[(1R,4R)-5-methyl-2,5-diazabicyclo[2.2.1]heptane-2-carbonyl]quinolin-8-yl}methyl)-1H-pyrazolo[4,3-d]pyrimidin-7-yl]amino}hexan-1-ol]
- EC50 (CD69): 49.7 nM
- EC50 (human TLR7): 191 nM

Structure (SMILES): CCC[C@@H](CCO)Nc1nc(N)nc2cnn(Cc3cccc4cccnc34)c12 [Compound 110, (3S)-3-({5-amino-1-[(quinolin-8-yl)methyl]-1H-pyrazolo[4,3-d]pyrimidin-7-yl}amino)hexan-1-ol]
- EC50 (CD69): 729 nM
- EC50 (human TLR7): 287 nM

Structure (SMILES): CCC[C@@H](CCO)Nc1nc(N)nc2cnn(Cc3ccc(C(=O)N4CCNCC4)c4cccnc34)c12 [Compound 137, (3S)-3-[(5-amino-1-{[5-(piperazine-1-carbonyl)quinolin-8-yl]methyl}-1H-pyrazolo[4,3-d]pyrimidin-7-yl)amino]hexan-1-ol]
- EC50 (CD69): 20.4 nM
- EC50 (human TLR7): 60.9 nM

Structure (SMILES): CCC[C@@H](CCO)Nc1nc(N)nc2cnn(Cc3ccc(C(=O)NC4CCN(C)CC4)c4cccnc34)c12 [Compound 121, 8-[(5-amino-7-{[(3S)-1-hydroxyhexan-3-yl]amino}-1H-pyrazolo[4,3-d]pyrimidin-1-yl)methyl]-N-(1-methylpiperidin-4-yl)quinoline-5-carboxamide]
- EC50 (CD69): 153 nM
- EC50 (human TLR7): 267 nM

Structure (SMILES): CCC[C@@H](CCO)Nc1nc(N)nc2cnn(Cc3ccc(C4CCN(C(C)C)CC4)c4cccnc34)c12 [Compound 143, (3S)-3-{[5-amino-1-({5-[1-(propan-2-yl)piperidin-4-yl]quinolin-8-yl}methyl)-1H-pyrazolo[4,3-d]pyrimidin-7-yl]amino}hexan-1-ol]
- EC50 (human TLR7): 6.1 nM

Structure (SMILES): CCC[C@@H](CCO)Nc1nc(N)nc2cnn(Cc3ccc(C(=O)NCCN)c4cccnc34)c12 [Compound 133, 8-[(5-amino-7-{[(3S)-1-hydroxyhexan-3-yl]amino}-1H-pyrazolo[4,3-d]pyrimidin-1-yl)methyl]-N-(2-aminoethyl)quinoline-5-carboxamide]
- EC50 (CD69): 593 nM
- EC50 (human TLR7): 409 nM

Structure (SMILES): CCC[C@@H](CCO)Nc1nc(N)nc2cnn(Cc3ccc(C(=O)NCCCCO)c4cccnc34)c12 [Compound 136, 8-[(5-amino-7-{[(3S)-1-hydroxyhexan-3-yl]amino}-1H-pyrazolo[4,3-d]pyrimidin-1-yl)methyl]-N-(4-hydroxybutyl)quinoline-5-carboxamide]
- EC50 (CD69): 418 nM
- EC50 (human TLR7): 231 nM

Structure (SMILES): CN1CCC(NC(=O)c2ccc(Cn3ncc4nc(N)nc(NCC5CC6(CC6)C5)c43)c3ncccc23)CC1 [Compound 116, 8-({5-amino-7-[({spiro[2.3]hexan-5-yl}methyl)amino]-1H-pyrazolo[4,3-d]pyrimidin-1-yl}methyl)-N-(1-methylpiperidin-4-yl)quinoline-5-carboxamide]
- EC50 (CD69): 291 nM
- EC50 (human TLR7): 280 nM

Structure (SMILES): Nc1nc(NCC2CC3(CC3)C2)c2c(cnn2Cc2ccc(C(=O)N3CCN(CCO)CC3)c3cccnc23)n1 [Compound 115, 2-{4-[8-({5-amino-7-[({spiro[2.3]hexan-5-yl}methyl)amino]-1H-pyrazolo[4,3-d]pyrimidin-1-yl}methyl)quinoline-5-carbonyl]piperazin-1-yl}ethan-1-ol]
- EC50 (CD69): 756 nM
- EC50 (human TLR7): 468 nM

Structure (SMILES): CCC[C@@H](CCO)Nc1nc(N)nc2cnn(Cc3ccc(CN4CC5(CCOCC5)C4)c4cccnc34)c12 [Compound 106, (3S)-3-[(5-amino-1-{[5-({7-oxa-2-azaspiro[3.5]nonan-2-yl}methyl)quinolin-8-yl]methyl}-1H-pyrazolo[4,3-d]pyrimidin-7-yl)amino]hexan-1-ol]
- EC50 (CD69): 48.1 nM
- EC50 (human TLR7): 19.3 nM

Structure (SMILES): CCC[C@@H](CCO)Nc1nc(N)nc2cnn(Cc3ccc(C4CCN(C5CCOCC5)CC4)c4cccnc34)c12 [Compound 142, (3S)-3-{[5-amino-1-({5-[1-(oxan-4-yl)piperidin-4-yl]quinolin-8-yl}methyl)-1H-pyrazolo[4,3-d]pyrimidin-7-yl]amino}hexan-1-ol]
- EC50 (human TLR7): 8.6 nM
